For 3 molecules, CAC, IC50 and S20,w results are on record in ChEMBL document CHEMBL4007494, “Structural Basis of Small-Molecule Aggregate Induced Inhibition of a Protein-Protein Interaction” (J Med Chem, 2017).

Molecules are shown by their SMILES. pIC50: −log10 of the molar value. Activity calls are given as the source filed them. The calls are words filed in the database; no cut-off is given here.

Experiment [1] can be described thus: Critical aggregation concentration assessed as formation of aggregate after 30 mins by light scattering method.
Experiment [2] deals with T1, Tumor necrosis factor (Homo sapiens, UniProt P01375). Put plainly: Binding affinity to human TNF-alpha soluble domain assessed as decrease in complex formation with human TNFR1 extracellular domain preincubated for 1 hr followed by receptor addition measure after 2 hrs by TR-FRET assay.
T1 sequence (P01375 whole entry, the tested form may be a part): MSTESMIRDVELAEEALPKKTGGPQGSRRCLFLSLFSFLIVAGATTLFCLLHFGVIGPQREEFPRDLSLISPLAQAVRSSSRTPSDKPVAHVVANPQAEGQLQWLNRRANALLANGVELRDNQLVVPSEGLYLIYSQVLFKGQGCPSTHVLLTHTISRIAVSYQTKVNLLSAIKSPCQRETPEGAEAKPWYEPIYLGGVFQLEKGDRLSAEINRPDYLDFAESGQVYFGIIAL
Experiment [3] deals with T1, Tumor necrosis factor. Put plainly: Binding affinity to human TNF-alpha soluble domain assessed as decrease in complex formation with human TNFR2 extracellular domain preincubated for 1 hr followed by receptor addition measure after 2 hrs by TR-FRET assay. On the technique in general: In TR-FRET formats the signal depends on donor and acceptor labels being close together.

Experiment [4] is described as follows: Critical aggregation concentration assessed as formation of aggregate after 30 mins in presence of triton X-100 by light scattering method.
In experiment [5] the target is T1, Tumor necrosis factor. Conditions: 50 uM.
Description: Binding affinity to human TNF-alpha soluble domain assessed as sedimentation velocity constant s20,w at 50 uM after 3 hrs by ultracentrifugation method

As to `Cc1cc2occ(CN(C)CCN(C)Cc3cn(-c4cccc(C(F)(F)F)c4)c4ccccc34)c(=O)c2cc1C`, the CAC in experiment [1] was determined as 10 µM.

In the case of `Nc1nccc(N(Cc2ccccc2)c2ccccc2-c2cccc(-c3cnc(N4CCNCC4)nc3)c2)n1`, the pIC50 was 5.92 on Tumor necrosis factor [2] and 5.96 on Tumor necrosis factor [3]. The CAC in experiment [1] stood at 1 µM. Besides, the CAC entry in experiment [4] is “inactive”. On Tumor necrosis factor [5], the S20,w was determined as 3.09.

For the molecule `Clc1ccc(COC(Cn2ccnc2)c2ccc(Cl)cc2Cl)c(Cl)c1` (stereo not drawn), in experiment [1], the CAC entry is “Dose-dependent effect”. In addition, the CAC entry in experiment [4] was “inactive”.

In general, pIC50 refers to −log10 of the IC50, conventionally taken in molar units.
